The structures appear in SMILES notation. A value given as a limit tells only on which side of the number the result lay.

This assay deals with rats. It counts as in vivo, rat. The note with it: positive control; versus mean on baseline days.

Procedure: The standard test in rat to measure anxiolytic effect (Geller conflict procedure) was designed by Geller and Seifter and modified by Pollard and Howard (Geller & Seifter, Psychophamracologia 1:482-492 (1960: Pollard & Howard, Psychopharmacology 62:117-121 (1979)). The anxiety-reducing effect of a KCNQ2/3 channel opener was measured using the Geller conflict procedure in rats. Rats are trained to press a lever to receive food pellets during daily 1 hour sessions. The sessions are divided into punished and unpunished phases. During the four, three-minute punished periods, a light signals that each lever press will produce both a pellet and a foot shock (punishment), which reduces lever pressing. The number of punished lever presses on test days (when test compound is administered) is compared to the mean on baseline days. […]

With `CNC1=Nc2ccc(Cl)cc2C(c2ccccc2)=[N+]([O-])C1` [chlordiazepoxide], the “increase in punished lever pressing” value was greater than 50%.

The values are drawn from patent publication US20020013349A1, “Methods for treating or preventing pain and anxiety” (priority 1999, published 2002).
